Measurements: patent US20060223827A1, “Bioreductively activated stilbene prodrugs” (Siemens Aktiengesellschaft, priority 2003, published 2006)

Columns and labels:
[1] = Radiolysis (steady state): release of combretastatin A4 after one-electron reduction; assay type: physicochemical; conditions: isopropanol/water 50:50, N2O-saturated, 60Co source 3.9 Gy min^−1, HPLC
Protocol: In the hypoxic environments of solid tumours, prodrugs can be reduced by one-electron processes that are inhibited in the normoxic environments of normal tissues.
Compounds were dissolved in an isopropanol/water mixture (50:50) at a concentration of 50 μM or below. Solutions, in gas-tight syringes, were saturated with nitrous oxide before irradiation in a ^60Co source at a dose rate of 3.9 Gy min^−1 (as determined by Fricke dosimetry: H. Fricke and E. J. Hart, “Chemical Dosimetry” in Radiation Dosimetry Vol. 2 (F. H. Attrix and W. C. Roesch. Eds.), pp 167-239. Academic Press New York, 1966.). Solutions were analysed for released drug by HPLC. The radiation chemical yields (G-values) of combretastatin A4 release obtained in this assay for selected example compounds are shown in Table 1.

Row | SMILES | G (radiation chemical yield of combretastatin A4 release) [1] | melting point
1 | COc1ccc(/C=C\c2cc(OC)c(OC)c(OC)c2)cc1OCc1c2c(n(C)c1C)C(=O)C=C(N1CCN(C)CC1)C2=O [Example 5, 3-((3,4,4′,5-Tetramethoxy-(Z)-stilbene-3′-yl)oxy)methyl-1,2-dimethyl-5-(4 methylpiperazin-1-yl)indole-4,7-dione] | 0.34 µmol/J | –
2 | COc1ccc(/C=C\c2cc(OC)c(OC)c(OC)c2)cc1OCc1ccc([N+](=O)[O-])s1 [Example 1, 1-(4-Methoxy-3-(5-nitrothien-2-yl)methoxy)phenyl-2-(3,4,5-trimethoxy)phenyl-Z-ethene] | 0.23 µmol/J | 88 to 90 °C
3 | COc1ccc(/C=C\c2cc(OC)c(OC)c(OC)c2)cc1OC(C)c1ccc([N+](=O)[O-])s1 (stereo not drawn) [Example 2, 1-(4-Methoxy-3-(1-(5-nitrothien-2-yl)ethoxy))phenyl-2-(3,4,5-trimethoxy)phenyl-Z-ethene] | 0.33 µmol/J | –
4 | COC1=CC(=O)c2c(c(COc3cc(/C=C\c4cc(OC)c(OC)c(OC)c4)ccc3OC)c(C)n2C)C1=O [Example 4, 5-Methoxy-3-((3,4,4′,5-tetramethoxy-(Z)-stilbene-3′-yl)oxy)methyl-1,2-dimethylindole-4,7-dione] | 0.44 µmol/J | 192 to 194 °C
